The source of these data is patent publication US8283106B2, “Sulfonic acid salt and derivative thereof, photoacid generator agent, and resist material and pattern formation method using the photoacid generator agent” (Central Glass Company, Limited, priority 2007, dated 2012).

Series [1] can be described thus: Resist solvent solubility. The class given is physicochemical. How it is done:
Using propylene glycol monomethyl ether acetate (PGMEA) as a resist solvent, the solubility of PAG 1 to PAG 6 in the resist solvent was measured.

Series [2] is described as follows: Resist compatibility of acid generator with base resin in resist composition. The class given is physicochemical. To be noted: for Compatibility: acid generator (1.0), PGMEA (400). How it is done: Resist compositions were prepared using the above sulfonic acid onium salts PAG 1 and PAG 2 as acid generators and the following polymers (Resin 1 to 5) as base resins. Resist solutions were obtained by filtering the resist compositions with […] membrane filters, respectively.
Each of the obtained resist solutions was spin-coated on a silicon wafer to form a resist film of 250 nm thickness. The resist film was prebaked at 110° C., exposed to a 248-nm ultraviolet ray through a photomask, and then, subjected to post exposure baking treatment at 120° C. After that, the resist film was developed with a […] aqueous tetramethylammonium hydroxide solution for 1 minute at 23° C.
For comparison purposes, the above sulfonic acid onium salts PAG 3, PAG 4 and PAG 7 were tested for the resist compatibility and resist resolution under the same conditions as to the above working examples.

Where two headings read alike, the source gives them in different places.

As to `O=C(NC12CC3CC(CC(C3)C1)C2)OCC(F)(F)S(=O)(=O)O` [PAG 2, triphenylsulfonium adamantane-1-yl-carbamic acid-2,2-difluoroethylsulfonate], the “resist solvent solubility relative to urethane bond-free sulfonic acid onium salts (PAG 3 to PAG 6)” value in series [1] (PGMEA) is reported as “twice or more higher”. For the same compound, in series [1] (resist solvent propylene glycol monomethyl ether acetate (PGMEA)), the Solubility was 0.7 parts by weight of PAG dissolved in 100 parts by weigh of PGMEA. The Compatibility entry in series [2] (Resin 1 (40 pts. wt.)), in series [2] (Resin 2 (40 pts. wt.)), in series [2] (Resin 3 (40 pts. wt.)), in series [2] (Resin 4 (40 pts. wt.)) and in series [2] (Resin 5 (40 pts. wt.)) was “Good” each time. Besides, the “resist compatibility compared with the conventional salts” value in series [2] (summary of TABLES 2 and 3) is on record as “higher resist compatibility”.

As for `O=C(OCC12CC3CC(CC(C3)C1)C2)C(F)(F)S(=O)(=O)O` [PAG 4, triphenylsulfonium (adamantane-1-yl-methyl)oxycarbonyldifluoromethanesulfonate], the Solubility in series [1] is given as 0.3 parts by weight of PAG dissolved in 100 parts by weigh of PGMEA. Further, the Compatibility result in series [2] (Resin 1 (40 pts. wt.)), in series [2] (Resin 2 (40 pts. wt.)), in series [2] (Resin 3 (40 pts. wt.)), in series [2] (Resin 4 (40 pts. wt.)) and in series [2] (Resin 5 (40 pts. wt.)) was “Good” throughout.

Consider `O=C(OCC(F)(F)S(=O)(=O)O)C12CC3CC(CC(C3)C1)C2` [PAG 6, triphenylsulfonium 2-(1′-adamantane)carbonyloxy-1,1-difluoroethanesulfonate], for which the Solubility in series [1] was 0.2 parts by weight of PAG dissolved in 100 parts by weigh of PGMEA.

Regarding “triphenylsulfonium cyclohexyloxycarbonyldifluoromethanesulfonate [PAG 3]”, the Solubility in series [1] is given as 0.4 parts by weight of PAG dissolved in 100 parts by weigh of PGMEA. Moreover, the Compatibility result in series [2] (Resin 1 (40 pts. wt.)), in series [2] (Resin 2 (40 pts. wt.)), in series [2] (Resin 3 (40 pts. wt.)), in series [2] (Resin 4 (40 pts. wt.)) and in series [2] (Resin 5 (40 pts. wt.)) was “Slightly poor” each time.
